EC50 data for 25 molecules are collected here from patent US9951065B2 (Gilead Sciences, Inc., priority 2015, dated 2018).

The target of the first experiment is T1, IDO1 (Homo sapiens, UniProt P14902).
T1 construct: HeLa cells were treated with a test compound in the presence of IFNγ, which induces IDO1 expression; host or cells: H1-HeLa cells, IDO1 induced with IFNγ
T1 sequence (P14902 whole entry): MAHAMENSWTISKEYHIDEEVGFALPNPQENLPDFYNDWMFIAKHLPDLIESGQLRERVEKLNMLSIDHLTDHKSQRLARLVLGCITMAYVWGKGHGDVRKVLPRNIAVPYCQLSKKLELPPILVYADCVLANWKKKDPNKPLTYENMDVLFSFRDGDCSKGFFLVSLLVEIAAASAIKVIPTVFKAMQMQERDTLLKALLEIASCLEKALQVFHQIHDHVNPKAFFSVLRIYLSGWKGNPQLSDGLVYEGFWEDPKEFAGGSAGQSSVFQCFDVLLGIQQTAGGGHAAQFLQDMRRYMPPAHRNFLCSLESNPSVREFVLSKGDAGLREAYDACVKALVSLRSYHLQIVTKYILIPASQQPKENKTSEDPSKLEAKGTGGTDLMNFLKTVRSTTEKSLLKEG
Put plainly: Cell-based (HeLa) assay for measurement of IDO1 inhibition (kynurenine levels in supernatant after IFNγ induction). The conditions noted are these: HeLa cells, IFNγ-induced IDO1, kynurenine in supernatant after 48 hour incubation; geometric mean of a minimum of four determinations. The gist of the method:
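IDO1 activity is read as kynurenine released into the medium, detected with Ehrlich's reagent (p-dimethylaminobenzaldehyde) at 480 nm after TCA treatment. HeLa cells were exposed 48 h to compounds in 0.5% DMSO alongside IFNγ induction. Values normalized to no-IFNγ and IFNγ controls; four-parameter EC50 given as geometric mean of ≥4 determinations.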
Usually EC50 stands for the concentration at which the effect is half-maximal. A higher EC50 goes with a less potent agent. `O/N=C(\Nc1ccc(F)c(Cl)c1)c1ccnc2nc(NCCc3ccccc3)[nH]c12` [Example 156, N-(3-Chloro-4-fluorophenyl)-N′-hydroxy-2-(phenethylamino)-1H-imidazo[4,5-b]pyridine-7-carboximidamide] gave an EC50 of 769 nM. Consider `O/N=C(\Nc1ccc(F)c(Cl)c1)c1ccc(OC(F)(F)F)c2nc[nH]c12` [Example 2, N-(3-Chloro-4-fluorophenyl)-N′-hydroxy-4-(trifluoromethoxy)-1H-benzo[d]imidazole-7-carboximidamide], for which the EC50 was determined as 2460 nM. Same read-out and setting: the same measure for `O/N=C(\Nc1ccc(F)c(Cl)c1)c1ccnc2nc(NCC3CC3)[nH]c12` [Example 161, N-(3-Chloro-4-fluorophenyl)-2-((cyclopropylmethyl)amino)-N′-hydroxy-1H-imidazo[4,5-b]pyridine-7-carboximidamide]: 655 nM; for `COCCCN(C)Cc1nc2nccc(/C(=N/O)Nc3ccc(F)c(Cl)c3)c2[nH]1` [Example 122, N-(3-Chloro-4-fluorophenyl)-N′-hydroxy-2-(((3-methoxypropyl)(methyl)amino)methyl)-1H-imidazo[4,5-b]pyridine-7-carboximidamide]: 1880 nM. Take `COCc1nc2nccc(/C(=N/O)Nc3ccc(F)c(Cl)c3)c2[nH]1` [Example 110, N-(3-Chloro-4-fluorophenyl)-N′-hydroxy-2-(methoxymethyl)-1H-imidazo[4,5-b]pyridine-7-carboximidamide]: the EC50 is 2320 nM. This EC50 and that of the molecule before are within 1.5-fold of each other. `O/N=C(\Nc1cccc(Cl)c1)c1ccnc2nc(CCN3CCCCC3)[nH]c12` [Example 271, N-(3-chlorophenyl)-N′-hydroxy-2-(2-(piperidin-1-yl)ethyl)-1H-imidazo[4,5-b]pyridine-7-carboximidamide] showed an EC50 of 602 nM. This EC50 is about 3.9-fold lower than that of the molecule before. The molecule `Nc1nc2nccc(/C(=N/O)Nc3ccc(F)c(Cl)c3)c2[nH]1` [Example 153, 2-Amino-N-(3-chloro-4-fluorophenyl)-N′-hydroxy-1H-imidazo[4,5-b]pyridine-7-carboximidamide] gave an EC50 of 897 nM. The EC50 values of the last two molecules are within 1.5-fold of each other. `O/N=C(\Nc1cccc(Cl)c1)c1ccnc2nc[nH]c12` [Example 82, N-(3-Chlorophenyl)-N′-hydroxy-1H-imidazo[4,5-b]pyridine-7-carboximidamide] yielded an EC50 of 160 nM.

Molecule `O/N=C(\Nc1ccc(F)c(OC(F)(F)F)c1)c1ccnc2nc[nH]c12` [Example 101, N-(4-Fluoro-3-(trifluoromethoxy)phenyl)-N′-hydroxy-1H-imidazo[4,5-b]pyridine-7-carboximidamide] came in with an EC50 of 845 nM.

As for `OCc1nc2c(/C(=N/O)Nc3ccc(F)c(Cl)c3)cc(F)c(F)c2[nH]1` [Example 46, N-(3-Chloro-4-fluorophenyl)-4,5-difluoro-N′-hydroxy-2-(hydroxymethyl)-1H-benzo[d]imidazole-7-carboximidamide], it took 835 nM to reach a half-maximal effect (EC50).

Turning to `Nc1nc2c(F)ccc(/C(=N/O)Nc3ccc(F)c(C(F)(F)F)c3)c2[nH]1` [Example 21, 2-Amino-4-fluoro-N-(4-fluoro-3-(trifluoromethyl)phenyl)-N′-hydroxy-1H-benzo[d]imidazole-7-carboximidamide], the EC50 was determined as 725 nM. The same measure, in the same setting: the same measure for `O/N=C(\Nc1ccc(F)c(Cl)c1)c1ccnc2nc(CNCCc3ncccn3)[nH]c12` [Example 137, N-(3-Chloro-4-fluorophenyl)-N′-hydroxy-2-(((2-(pyrimidin-2-yl)ethyl)amino)methyl)-1H-imidazo[4,5-b]pyridine-7-carboximidamide]: 7490 nM; for `CC(O)CNc1nc2c(F)c(F)cc(/C(=N/O)Nc3ccc(F)c(Cl)c3)c2[nH]1` (stereo not shown) [Example 293, N-(3-chloro-4-fluorophenyl)-4,5-difluoro-N′-hydroxy-2-((2-hydroxypropyl)amino)-1H-benzo[d]imidazole-7-carboximidamide]: 3000 nM; for `NC(=O)CCNc1nc2c(F)c(F)cc(/C(=N/O)Nc3ccc(F)c(Cl)c3)c2[nH]1` [Example 229]: greater than 10000 nM. In turn, `O/N=C(\Nc1ccc(F)c(Cl)c1)c1ccnc2nc(NC3CC3)[nH]c12` [Example 154, N-(3-Chloro-4-fluorophenyl)-2-(cyclopropylamino)-N′-hydroxy-1H-imidazo[4,5-b]pyridine-7-carboximidamide] had an EC50 of 529 nM. `NC(=O)CNc1nc2c(F)c(F)cc(/C(=N/O)Nc3ccc(F)c(Cl)c3)c2[nH]1` [Example 294, 2-((7-(N-(3-chloro-4-fluorophenyl)-N′-hydroxycarbamimidoyl)-4,5-difluoro-1H-benzo[d]imidazol-2-yl)amino)acetamide] yielded an EC50 of 9950 nM. Still for that read-out and setting: the same measure for `CC(C)NCCc1nc2nccc(/C(=N/O)Nc3ccc(F)c(Cl)c3)c2[nH]1` [Example 205, N-(3-chloro-4-fluorophenyl)-N′-hydroxy-2-(2-(isopropylamino)ethyl)-3H-imidazo[4,5-b]pyridine-7-carboximidamide]: 2820 nM; for `CCNc1nc2nccc(/C(=N/O)Nc3ccc(F)c(Cl)c3)c2[nH]1` [Example 163, N-(3-Chloro-4-fluorophenyl)-2-(ethylamino)-N′-hydroxy-1H-imidazo[4,5-b]pyridine-7-carboximidamide]: 1080 nM.

Staying with this experiment, now noted: HeLa cells, IFNγ-induced IDO1, kynurenine in supernatant, 48 hour incubation; geometric mean of a minimum of four determinations.
`Nc1nc2cc(F)cc(/C(=N/O)Nc3cccc(Br)c3)c2[nH]1` [Example 372, 2-amino-N-(3-bromophenyl)-5-fluoro-N′-hydroxy-1H-benzo[d]imidazole-7-carboximidamide] had an EC50 of 483 nM. Regarding `O/N=C(\Nc1ccc(F)c(Cl)c1)c1cc(F)c(F)c2nc(NCC34CCCN3CCC4)[nH]c12` [Example 471, N-(3-chloro-4-fluorophenyl)-4,5-difluoro-2-(((hexahydro-1H-pyrrolizin-7a-yl)methyl)amino)-N′-hydroxy-1H-benzo[d]imidazole-7-carboximidamide], a half-maximal effect (EC50) was put at 852 nM. This EC50 lies about 1.8-fold higher than the previous one. The molecule `CS(=O)(=O)NCCNc1nc2nccc(/C(=N/O)Nc3ccc(F)c(Cl)c3)c2[nH]1` [Example 405, N-(3-chloro-4-fluorophenyl)-N′-hydroxy-2-((2-(methylsulfonamido)ethyl)amino)-1H-imidazo[4,5-b]pyridine-7-carboximidamide] gave an EC50 of 7110 nM. With `O/N=C(\Nc1ccc(F)c(Cl)c1)c1cc(F)cc2nc(NCCN3CCCC3)[nH]c12` [Example 380, N-(3-chloro-4-fluorophenyl)-5-fluoro-N′-hydroxy-2-((2-(pyrrolidin-1-yl)ethyl)amino)-1H-benzo[d]imidazole-7-carboximidamide], the EC50 was 1390 nM. Same read-out and setting: the same measure for `COc1c(F)cc(/C(=N/O)Nc2ccc(F)c(Cl)c2)c2[nH]cnc12` [Example 307, N-(3-chloro-4-fluorophenyl)-5-fluoro-N′-hydroxy-4-methoxy-1H-benzo[d]imidazole-7-carboximidamide]: 209 nM; for `CC(=O)NCCNc1nc2c(F)c(F)cc(/C(=N/O)Nc3ccc(F)c(Cl)c3)c2[nH]1` [Example 334, N-(2-((7-(N-(3-chloro-4-fluorophenyl)-N′-hydroxycarbamimidoyl)-4,5-difluoro-1H-benzo[d]imidazol-2-yl)amino)ethyl)acetamide]: 6120 nM. Molecule `CN(C)CCCNc1nc2cc(F)cc(/C(=N/O)Nc3ccc(F)c(Cl)c3)c2[nH]1` [Example 389, N-(3-chloro-4-fluorophenyl)-2-((3-(dimethylamino)propyl)amino)-5-fluoro-N′-hydroxy-1H-benzo[d]imidazole-7-carboximidamide] registered an EC50 of 1160 nM. Compared with the last molecule, the EC50 is about 5.3-fold lower.
